Consider one molecule from article PMC2722590, “Production of N-acetyl-D-neuraminic acid using two sequential enzymes overexpressed as double-tagged fusion proteins” (BMC Biotechnology, 2009).

SMILES strings stand for the structures.

In the assay the target is T1, GST-GlcNAc 2-epimerase-5D (Synechocystis sp. PCC 6803, UniProt P74124).
T1 construct: gene slr1975; 1209 bp PCR fragment
T1 sequence (P74124 1-391): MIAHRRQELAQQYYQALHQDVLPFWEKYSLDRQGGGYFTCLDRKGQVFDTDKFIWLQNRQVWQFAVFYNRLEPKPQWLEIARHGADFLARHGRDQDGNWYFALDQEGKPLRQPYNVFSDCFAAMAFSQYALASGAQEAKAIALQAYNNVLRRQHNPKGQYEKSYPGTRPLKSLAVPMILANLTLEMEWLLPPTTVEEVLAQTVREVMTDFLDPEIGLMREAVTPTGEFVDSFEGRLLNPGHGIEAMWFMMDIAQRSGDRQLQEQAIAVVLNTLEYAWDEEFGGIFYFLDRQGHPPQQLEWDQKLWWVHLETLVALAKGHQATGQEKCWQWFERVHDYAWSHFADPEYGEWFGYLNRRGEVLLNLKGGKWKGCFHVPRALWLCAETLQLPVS
The assay is described as follows: enzyme inhibition kinetics. Type of assay: biochemical. Conditions: read-out: inhibition constant.

Take `CC(=O)C(=O)O` [pyruvate]: the Ki was 31 mM.
